In this assay the test system is human adipose stem cells (hASCs). Briefly: hASC proliferation (cell number) on BCP scaffold, static culture. Format: cell-based. The note with it: vs non-treated controls. How it is done:
In one embodiment, a method of static culture of hASCs by pre-treatment with vitamin D3 (calcitriol) and attachment of hASCs to the scaffold used in one-step surgical procedure comprises the following steps. At one step, isolating hASCs as explained in FIG. 1. In an embodiment, the hASCs from three donors at passage 3 are used for further processing. As an optional step, the obtained hASCs are either or not incubated for a period of about 30 mins with low concentrated calcitriol of about 10 nM at room temperature. At next step, the calcitriol treated hASCs are washed twice with Phosphate Buffered Saline (PBS) to remove calcitriol. Further, the washed hASCs are centrifuged and resuspended in Dulbecco's Minimum Essential Medium (DMEM) without any supplements. At another step, the resuspended cells are seeded on the scaffold and allowed to attach to the scaffolds for a period of about 30 minutes. At next step, the scaffolds with attached cells are transferred to 12-well plates with Costar® Transwell® containers (Corning Life Sciences, Lowell, Mass., USA) containing expansion medium (DMEM) supplemented with 10% Fetal Clone I (FCI), antibiotics (1% penicillin/streptomycin/fungizone (PSF)), 50 μM ascorbic acid (Merck, Darmstadt, Germany), and 10 mM β-glycerol phosphate (Merck, Darmstadt, Germany) (PLGA/β-TCP). At next step, the hASCs seeded scaffolds are incubated at 5% CO2 in a humidified incubator at predefined temperature of about 37° C. for a period of about 3 weeks. The effect of 30 minutes pre-treatment with calcitriol on hASC proliferation is exemplarily illustrated in FIG. 4C. […] The 30 minutes pre-treatment with calcitriol increases the cell number at day 14 by 3.5-fold, and at day 21 by 2.6-fold. The continuous treatment of hASCs with calcitriol for 3 weeks increases the cell number only at day 14 by 1.7-fold, but not at day 21 compared to non-treated controls as shown in FIG. 4C. The results of hASC proliferation are expressed as CFU (in %) versus time (in days) and represent means±standard errors of the means of the colon forming unit counts (n=3), where p<0.0001.

The text below walks through data of patent US20210009959A1, “METHODS FOR ENHANCING OSTEOGENIC DIFFERENTIATION USING VITAMIN D” (priority 2019, published 2021).

Consider `C=C1/C(=C\C=C2/CCC[C@]3(C)[C@@H]([C@H](C)CCCC(C)(C)O)CC[C@@H]23)C[C@@H](O)C[C@@H]1O` [calcitriol, 1,25-dihydroxyvitamin D3], for which the “cell number, increase” value (30 min pre-treatment, day 14) was 3.5 fold; the “cell number, increase” value (30 min pre-treatment, day 21) is reported as 2.6 fold; the “cell number, increase” value (continuous treatment for 3 weeks, day 14) is reported as 1.7 fold; the “cell number, increase” value (continuous treatment for 3 weeks, day 21) was “not at day 21”.
